Laboratory results: article PMC6529454, “Development of human cGAS-specific small-molecule inhibitors for repression of dsDNA-triggered interferon expression” (Nature Communications, 2019)
Several values for one entry are separate records, joined by “and”; a condition that tells them apart may be missing. Equal entries are not always repeated. Where two headings read alike, the source gives them in different places. Blank lines part the entries; values can stand above or below the compound they belong to.

Legend:
[1] = system: NF-κB pathway reporter in THP1-Dual cells; assay: SEAP NF-κB reporter assay in dsDNA-stimulated THP1-Dual cells; type: cell-based; conditions: Homo sapiens
cGAS in THP1 cells = assay: dsDNA-stimulated mRNA induction (qRT-PCR) in THP1 cells; type: cell-based, human; conditions: for IC50: Homo sapiens, THP-1, qRT-PCR
[2] = molecular target: T1, soluble adenylyl cyclase (ADCY10), human sACt protein (Homo sapiens, UniProt Q96PN6); assay: Soluble adenylyl cyclase (sAC) inhibition assay; type: biochemical; conditions: for IC50: RF-MS readout
T1 construct: were added with 5 µl of human sACt protein
T1 sequence (Q96PN6 1-469 limits assumed): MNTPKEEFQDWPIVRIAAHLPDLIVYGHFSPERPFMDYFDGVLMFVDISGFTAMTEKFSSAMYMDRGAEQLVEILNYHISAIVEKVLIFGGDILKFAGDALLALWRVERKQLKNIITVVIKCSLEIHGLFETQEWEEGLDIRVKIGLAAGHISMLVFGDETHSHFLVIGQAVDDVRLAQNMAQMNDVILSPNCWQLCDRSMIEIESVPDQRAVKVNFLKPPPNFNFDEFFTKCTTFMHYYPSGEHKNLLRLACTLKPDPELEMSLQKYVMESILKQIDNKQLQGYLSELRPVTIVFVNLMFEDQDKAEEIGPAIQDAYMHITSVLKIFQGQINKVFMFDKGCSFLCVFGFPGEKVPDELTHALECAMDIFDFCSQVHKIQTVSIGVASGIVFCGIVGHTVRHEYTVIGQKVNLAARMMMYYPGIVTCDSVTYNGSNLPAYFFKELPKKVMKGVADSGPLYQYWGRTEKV

[3] = system: RIG-I pathway in THP1 cells; assay: hpRNA-stimulated IFNB1 mRNA induction in THP1 cells (specificity); type: cell-based, human; conditions: THP1, 10 µM inhibitor
[4] = system: cGAS in primary human macrophages; assay: dsDNA-stimulated mRNA induction (qRT-PCR) in primary human macrophages; type: cell-based; conditions: Macrophage
m-cGAS = m-cGAS (Mus musculus, UniProt Q8C6L5); assay: RapidFire mass spectrometry (RF-MS) cGAS activity assay, m-cGAS; conditions: for IC50: RF-MS
h-cGAS = h-cGAS (Homo sapiens, UniProt Q8N884); assay: RapidFire mass spectrometry (RF-MS) cGAS activity assay, h-cGAS; conditions: for IC50: RF-MS; for fold improvement of h-cGAS IC50: relative to the parent compound
[5] = system: STING pathway in THP1 cells; assay: cGAMP-stimulated IFNB1 mRNA induction in THP1 cells (specificity); type: cell-based, human
THP1 cells = assay: CellTiter-Glo cytotoxicity assay, THP1; type: cell-based; conditions: 24 h
cGAS in RAW-Lucia cells = assay: Lucia luciferase reporter assay in dsDNA-stimulated RAW-Lucia cells; conditions: read-out: cell-based IC50 in mouse RAW 264.7 cells
[6] = Solubility in cell culture media; type: physicochemical
human THP1 cells = system: human THP1 cells; design: method as in PMID 25821216; conditions: cited from earlier work
h-cGAS(Y248F) = assay: RF-MS assay with mutant h-cGAS(Y248F); type: biochemical, human; conditions: relative to native h-cGAS
[7] = system: STING pathway in RAW 264.7 cells; assay: cGAMP-stimulated IFNB1 mRNA induction in RAW 264.7 cells (specificity); type: cell-based, mouse; conditions: RAW 264.7, 10 µM J014
cGAS in RAW 264.7 cells = assay: dsDNA-stimulated IFNB1 mRNA induction (qRT-PCR) in RAW 264.7 cells; type: cell-based; conditions: Mus musculus, RAW264.7
45-bp dsDNA = assay: dsDNA intercalation fluorescence polarization assay (acridine orange); type: binding
[8] = read-out: IC50 CXCL10 mRNA, THP1
[9] = read-out: IC50 IFNB1 mRNA, THP1
[10] = read-out: IC50 CXCL10 mRNA, primary human macrophages
[11] = read-out: IC50 IFNB1 mRNA, primary human macrophages

Chain of h-cGAS (Q8N884 whole entry): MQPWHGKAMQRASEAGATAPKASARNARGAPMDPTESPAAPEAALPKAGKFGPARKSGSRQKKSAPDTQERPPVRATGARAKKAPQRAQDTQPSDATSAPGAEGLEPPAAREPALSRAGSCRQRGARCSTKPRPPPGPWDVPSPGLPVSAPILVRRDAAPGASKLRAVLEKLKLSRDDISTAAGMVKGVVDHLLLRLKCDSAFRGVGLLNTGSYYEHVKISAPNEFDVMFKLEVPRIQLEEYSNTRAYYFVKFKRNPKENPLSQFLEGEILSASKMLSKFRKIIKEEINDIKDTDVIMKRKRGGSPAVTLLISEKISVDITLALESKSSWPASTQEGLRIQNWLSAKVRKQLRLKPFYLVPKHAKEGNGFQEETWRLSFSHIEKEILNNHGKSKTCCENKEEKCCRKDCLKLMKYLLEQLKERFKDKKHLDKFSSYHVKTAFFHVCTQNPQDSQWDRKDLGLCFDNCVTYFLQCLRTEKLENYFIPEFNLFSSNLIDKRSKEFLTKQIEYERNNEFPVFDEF
Chain of m-cGAS (Q8C6L5 whole entry): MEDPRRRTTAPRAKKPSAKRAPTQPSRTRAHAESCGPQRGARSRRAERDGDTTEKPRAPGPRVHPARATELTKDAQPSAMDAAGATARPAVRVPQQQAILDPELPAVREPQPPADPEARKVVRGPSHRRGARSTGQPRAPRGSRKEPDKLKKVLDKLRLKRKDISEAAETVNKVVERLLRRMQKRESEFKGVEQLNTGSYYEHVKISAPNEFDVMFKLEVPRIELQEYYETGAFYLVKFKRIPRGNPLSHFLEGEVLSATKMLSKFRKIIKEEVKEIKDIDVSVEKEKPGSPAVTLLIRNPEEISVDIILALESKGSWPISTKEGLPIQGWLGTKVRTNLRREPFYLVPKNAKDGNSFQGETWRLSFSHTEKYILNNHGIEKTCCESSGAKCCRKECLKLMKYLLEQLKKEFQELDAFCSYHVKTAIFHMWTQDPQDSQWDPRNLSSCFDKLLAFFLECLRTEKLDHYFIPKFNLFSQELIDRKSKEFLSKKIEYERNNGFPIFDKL

IC50 [1]: 1.36 µM | IC50 (cGAS in THP1 cells; [8]): 1.95 µM | IC50 (cGAS in THP1 cells; [9]): 1.7 µM | inhibition of adenylyl cyclase (in words) [2]: no inhibition | IC50 [2]: > 50 µM | IC50 [4, 10]: 0.49 µM | IC50 [4, 11]: 0.86 µM | IC50 (m-cGAS; IC50 m-cGAS): 0.442 µM | IC50 (h-cGAS; IC50 h-cGAS): 0.014 µM | fold improvement of h-cGAS IC50 (h-cGAS): 2 fold
SMILES: Cn1ccc(-c2cc(Cl)c(Cl)c3[nH]c4c(c23)CN(C(=O)CO)CC4)n1 [G140]
off-target inhibition of hpRNA-stimulated RIG-I pathway (in words) [3]: complete absence of off-target effect | off-target inhibition of cGAMP-stimulated STING pathway (in words) ([5]; THP1, 10 µM inhibitor): complete absence of off-target effect | LD50, THP1 cells (THP1 cells): > 100 µM

IC50 (m-cGAS; IC50 m-cGAS): < 0.024 µM | IC50 (cGAS in RAW-Lucia cells; Mus musculus, RAW264.7, Lucia luciferase per Suppl. Fig. 11a,b): 3.32 µM
SMILES: O=C(CO)N1CCc2[nH]c3c(Cl)c(Cl)ccc3c2C1 [G022, 1-(6,7-dichloro-1,3,4,5-tetrahydro-2H-pyrido[4,3-b]indol-2-yl)-2-hydroxyethan-1-one]
inhibition of IFNB1 mRNA induction in human THP1 cells (in words) (cGAS in THP1 cells): no inhibition

solubility in cell culture media (in words) [6]: limited solubility | IC50 (m-cGAS; read-out: IC50 m-cGAS): < 0.024 µM | IC50 (h-cGAS; read-out: IC50 h-cGAS): > 0.039 µM | fold improvement of h-cGAS IC50 (h-cGAS): 2 fold
SMILES: COc1cc(Cl)c(Cl)c2[nH]c3c(c12)CN(C(=O)CO)CC3 [G098]

The remaining lines, values behind:

SMILES: Cn1c2c(c3ccc(Cl)c(F)c31)CN(C(=O)CO)CC2 [G097]
inhibition of IFNB1 mRNA induction in human THP1 cells (in words) (cGAS in THP1 cells): no inhibition | IC50 (m-cGAS; read-out: IC50 m-cGAS): < 0.024 µM | IC50 (h-cGAS; read-out: IC50 h-cGAS): > 0.039 µM | IC50 (cGAS in RAW-Lucia cells; Lucia luciferase per Suppl. Fig. 11a,b): 1.09 µM

SMILES: CCN(CC)CCCC(C)Nc1c2ccc(Cl)cc2nc2ccc(OC)cc12 (centres unmarked) [quinacrine]
IC50 (human THP1 cells): 3.7 µM

SMILES: O=C(CO)N1CCc2[nH]c3c(Cl)c(Cl)cc(-c4cn[nH]c4)c3c2C1 [G108]
IC50 [1]: 2.27 µM | IC50 (cGAS in THP1 cells; [8]): 3.56 µM | IC50 (cGAS in THP1 cells; [9]): 2.95 µM | IC50 [2]: 26.4 µM | inhibition at 10 µM ([3]; Homo sapiens, THP-1): 20 to 40% | off-target inhibition of hpRNA-stimulated RIG-I pathway (in words) [3]: weak off-target inhibition | fold reduction of drug inhibition with h-cGAS(Y248F) (h-cGAS(Y248F)): 250 fold | IC50 [4, 10]: 0.59 µM | IC50 [4, 11]: 1.53 µM | IC50 (m-cGAS; IC50 m-cGAS, in-house synthesized compounds): 5.15 µM and ≥ 5 µM | fold reduction of m-cGAS potency (m-cGAS; relative to G022): 300 fold | IC50 (h-cGAS; IC50 h-cGAS): 0.0275 µM | IC50 (h-cGAS; IC50 h-cGAS, in-house synthesized compounds): 0.028 µM | fold improvement of h-cGAS IC50 (h-cGAS): 4 fold | inhibition at 10 µM ([5]; Homo sapiens, THP-1, THP1, 10 µM inhibitor): 20 to 40% | off-target inhibition of cGAMP-stimulated STING pathway (in words) ([5]; THP1, 10 µM inhibitor): weak off-target inhibition | LD50, THP1 cells (THP1 cells): 56.7 µM

SMILES: O=C(Nc1cc(-c2ccccc2)ccn1)c1[nH]ncc1[N+](=O)[O-] [J014]
IC50 (cGAS in THP1 cells; [9]): 2.63 µM | inhibition with cGAMP instead of dsDNA as activating ligand (in words) [7]: same level of inhibition | IC50 (cGAS in RAW 264.7 cells): 3.58 µM | IC50 (m-cGAS; IC50 m-cGAS): 0.06 µM | fold improvement of m-cGAS IC50 (m-cGAS; relative to the parent compound): 10 fold | IC50 (h-cGAS; IC50 h-cGAS): 0.1 µM | fold improvement of h-cGAS IC50 (h-cGAS): 10 fold | % Intercalation at 30 µM (45-bp dsDNA; 30 µM): -22.38% | Polarization (45-bp dsDNA; compound at 30 µM): 277 mP | inhibition with cGAMP instead of dsDNA as activating ligand (in words) ([5]; THP1, 5 µM J014): same level of inhibition | LD50, THP1 cells (THP1 cells): 28.9 µM
